Measured values as given in US9901618B2, “Cell-permeable peptide system for treating diseases caused by glutamate excitotoxicity” (priority 2014, dated 2018).
“Also recorded” adds a separate entry of the source.

Assays:
JNK = assay: Western blot of JNK phosphorylation in cortical synaptosomes; details: for phosphorylation of JNK (p-JNK/JNK) vs. control=100%: wild-type synaptosomes, stimulus alone (100 μM NMDA 10 min Mg2+-free; AMPA 10 min; KCl 90 s)
[1] = tested on: presynaptic release of glutamate; assay: Glutamate ([3H]D-Asp) release from superfused cortical synaptosomes; assay type: cell-based, mouse; details: for exocytotic release of [3H] D-Asp vs. control: C57/BL6 cortical synaptosomes, 8 mM KCl 90 s, 100 μM NMDA 10 min Mg2+-free, 50 μM (S)-AMPA 10 min
Syntaxin 1a = assay: Western blot of STX1a (S14) phosphorylation in synaptosomes; assay type: cell-based, mouse
[2] = tested on: presynaptic NMDA receptors; assay: mEPSC patch-clamp recording in cortex slices (NMDA-dependent presynaptic glutamate release); assay type: cell-based, mouse; details: for effect on D-AP5 block of NMDA presynaptic receptor (mEPSC inter-events): peptide added separately at 10 μM, 30 min before recording
[3] = tested on: presynaptic NMDA receptors; assay: Paired-pulse ratio of evoked EPSCs, patch-clamp in entorhinal cortex slices; assay type: cell-based, mouse; details: D-AP5 50 μM perfusion, C57BL6/J slices
Experimental: The presynaptic NMDA receptors on the glutamatergic terminals are activated by the spontaneously-released glutamate and, by means of a positive feedback mechanism, determine a tonic liberation of glutamate. Electrophysiological recordings were made in order to investigate the functional role of JNK in the release of glutamate. For this reason, a parameter termed paired-pulse facilitation (PPF) was measured from pyramidal neurons of cerebral slices of entorhinal cortex (EC)-obtained from adult mice C57BL6/J incubated with or without the inhibitor of JNK, L-JNKi1 (2 μM for 30 min). Such paired-pulse facilitation (PPF) is a paradigm studied by means of the electrophysiological recording technique in patch-clamp configuration.

[4] = synaptosomes treated with D-AP5

Compound: Cc1onc(O)c1C[C@H](N)C(=O)O [(S)-AMPA]
- phosphorylation of JNK (p-JNK/JNK) vs. control=100% (JNK): unable to increase the phosphorylation of JNK
- exocytotic release of [3H] D-Asp vs. control [1]: 98±11%

Compound: CN[C@H](CC(=O)O)C(=O)O [NMDA, N-Methyl D-Aspartate]
- NMDA-induced phosphorylation of JNK (JNK; JNK2-KO mouse synaptosomes): totally eliminated
- NMDA-induced increase of pJNK vs. control=100% (JNK; JNK3-KO mouse synaptosomes): +76±10%
- exocytotic release of [3H] D-Asp vs. control [1]: 202±21%
- NMDA-induced release of [3H] D-Asp with respect to the overflow basal ([1]; JNK2-KO mouse synaptosomes, NMDA 10 min): 28±19%
- phosphorylation of STX1a (S14) after NMDA alone (Syntaxin 1a; NMDA 10 min): slight but non-significant decrease

Compound: [Cl-].[K+] [KCl]
- phosphorylation of JNK (p-JNK/JNK) vs. control=100% (JNK): unable to increase the phosphorylation of JNK
- exocytotic release of [3H] D-Asp vs. control [1]: 158±37%

Compound: NC(CCCP(=O)(O)O)C(=O)O [D-AP5]
- change in pJNK vs. Ctrl (100%) with D-AP5 (JNK; [4]): +10±8.9%
- mEPSC amplitude [2]: neither the cumulative amplitude nor the mean of the same events were affected; also recorded: never affected
- mEPSC inter-event intervals [2]: increase of the cumulative distribution of the inter-event intervals
- mEPSC inter-event intervals and amplitude [2]: no significant changes
- mEPSC inter-event intervals (IEI) ([2]; D-AP5, C57BL6/J slices, tetrodotoxin, picrotoxin, MK-801 in pipette): reversible increase
- change in pSTX1a vs. Ctrl (100%) with D-AP5 (Syntaxin 1a; [4]): −10±7.2%
- paired-pulse ratio (PPR) at 50 ms interval [3]: irreversibly reduced

Compound: GRKKRRQRRRPPMSEYNATQSDYRER (SEQ ID NO: 8) (Muridae) [JGRi2]
- effect on D-AP5 block of NMDA presynaptic receptor (mEPSC inter-events) [2]: reduced the functionality of the inhibitor D-AP5

Compound: GRKKRRQRRRPPIEQSIEQEEGLNRS (SEQ ID NO: 5) (Muridae) [JGRi1]
- effect on D-AP5 block of NMDA presynaptic receptor (mEPSC inter-events) [2]: reduced the functionality of the inhibitor D-AP5
